From US11572590B2, “Methods for evaluating tumor cell spheroids using 3D microfluidic cell culture device” (Dana-Farber Cancer Institute, Inc., priority 2017, dated 2023)
Where two headings read alike, the source gives them in different places.

Tests used:
Test in all cases: SelectScreen Kinase Profiling, single point inhibition and IC50 for off-target kinases
Type in all cases: biochemical
off-target kinases [1] = target: T1, off-target kinases (Homo sapiens, UniProt Q16832, T654M); details: DDR2 T654M, LanthaScreen Binding
T1 sequence (Q16832 22-855 T654M): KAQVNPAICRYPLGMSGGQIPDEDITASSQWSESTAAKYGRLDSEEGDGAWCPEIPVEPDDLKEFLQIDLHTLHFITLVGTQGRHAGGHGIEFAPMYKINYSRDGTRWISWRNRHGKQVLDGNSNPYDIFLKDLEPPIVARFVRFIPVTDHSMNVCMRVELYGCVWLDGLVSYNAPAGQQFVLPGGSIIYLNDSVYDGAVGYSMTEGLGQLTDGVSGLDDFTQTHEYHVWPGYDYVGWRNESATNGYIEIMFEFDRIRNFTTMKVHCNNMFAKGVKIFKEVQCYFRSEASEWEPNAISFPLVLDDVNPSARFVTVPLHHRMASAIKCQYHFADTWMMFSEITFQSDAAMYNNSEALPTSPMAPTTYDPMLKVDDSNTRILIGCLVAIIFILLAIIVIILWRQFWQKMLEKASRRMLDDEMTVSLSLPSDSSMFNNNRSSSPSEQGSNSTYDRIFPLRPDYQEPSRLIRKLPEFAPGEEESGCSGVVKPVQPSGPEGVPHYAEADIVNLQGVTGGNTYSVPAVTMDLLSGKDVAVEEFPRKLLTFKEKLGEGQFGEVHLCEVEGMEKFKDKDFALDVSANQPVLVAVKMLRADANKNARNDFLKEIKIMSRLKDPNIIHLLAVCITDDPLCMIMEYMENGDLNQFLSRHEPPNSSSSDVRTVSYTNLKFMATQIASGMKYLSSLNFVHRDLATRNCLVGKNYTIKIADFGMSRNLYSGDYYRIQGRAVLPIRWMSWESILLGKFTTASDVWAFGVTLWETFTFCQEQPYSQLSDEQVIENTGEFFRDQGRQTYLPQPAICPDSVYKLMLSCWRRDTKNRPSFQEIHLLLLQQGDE

off-target kinases [2] = target: T2, off-target kinases (Homo sapiens, UniProt Q9NRA0); details: SPHK2; Cmpd1 1000 μM; ATP 10; Adapta
T2 sequence (Q9NRA0 1-654): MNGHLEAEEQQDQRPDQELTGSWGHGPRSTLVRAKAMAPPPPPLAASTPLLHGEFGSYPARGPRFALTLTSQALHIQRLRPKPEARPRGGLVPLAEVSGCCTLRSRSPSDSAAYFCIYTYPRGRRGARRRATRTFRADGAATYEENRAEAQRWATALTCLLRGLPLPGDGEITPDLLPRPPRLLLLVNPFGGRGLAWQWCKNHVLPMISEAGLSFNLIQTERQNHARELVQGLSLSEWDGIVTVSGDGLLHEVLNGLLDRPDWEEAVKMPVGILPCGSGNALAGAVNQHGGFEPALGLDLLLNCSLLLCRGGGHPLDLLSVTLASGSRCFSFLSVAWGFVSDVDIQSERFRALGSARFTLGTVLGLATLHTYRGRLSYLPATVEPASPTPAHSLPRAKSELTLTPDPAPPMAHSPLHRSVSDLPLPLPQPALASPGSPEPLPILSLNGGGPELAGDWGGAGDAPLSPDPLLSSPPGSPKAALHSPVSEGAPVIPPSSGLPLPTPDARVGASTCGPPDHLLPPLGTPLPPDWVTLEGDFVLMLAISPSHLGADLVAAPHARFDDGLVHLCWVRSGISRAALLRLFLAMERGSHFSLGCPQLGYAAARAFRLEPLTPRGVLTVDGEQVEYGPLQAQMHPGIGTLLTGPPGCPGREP

off-target kinases [3] = target: off-target kinases (Homo sapiens, UniProt P04629); details: NTRK1 (TRKA), ZLYTE, ATP Km app
off-target kinases [4] = target: off-target kinases (Homo sapiens, UniProt P23443); details: RPS6KB1 (p70S6K), ZLYTE, ATP Km app
off-target kinases [5] = target: off-target kinases (Homo sapiens, UniProt P48730); details: CSNK1D (CK1 delta), ZLYTE, ATP Km app
Chain of off-target kinases (Homo sapiens, UniProt P48730) (P48730 whole entry): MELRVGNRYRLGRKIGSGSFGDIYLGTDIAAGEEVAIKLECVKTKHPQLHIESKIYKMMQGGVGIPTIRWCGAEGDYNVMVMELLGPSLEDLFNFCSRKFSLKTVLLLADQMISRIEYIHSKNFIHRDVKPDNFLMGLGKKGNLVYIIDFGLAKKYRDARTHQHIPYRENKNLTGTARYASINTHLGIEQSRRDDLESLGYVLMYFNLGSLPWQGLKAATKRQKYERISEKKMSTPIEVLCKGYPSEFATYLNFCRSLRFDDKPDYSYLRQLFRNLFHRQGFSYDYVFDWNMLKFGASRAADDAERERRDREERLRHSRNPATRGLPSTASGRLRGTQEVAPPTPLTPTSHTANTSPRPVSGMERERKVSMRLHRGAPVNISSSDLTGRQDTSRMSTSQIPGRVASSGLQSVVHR

Chain of off-target kinases (Homo sapiens, UniProt P04629) (P04629 33-796): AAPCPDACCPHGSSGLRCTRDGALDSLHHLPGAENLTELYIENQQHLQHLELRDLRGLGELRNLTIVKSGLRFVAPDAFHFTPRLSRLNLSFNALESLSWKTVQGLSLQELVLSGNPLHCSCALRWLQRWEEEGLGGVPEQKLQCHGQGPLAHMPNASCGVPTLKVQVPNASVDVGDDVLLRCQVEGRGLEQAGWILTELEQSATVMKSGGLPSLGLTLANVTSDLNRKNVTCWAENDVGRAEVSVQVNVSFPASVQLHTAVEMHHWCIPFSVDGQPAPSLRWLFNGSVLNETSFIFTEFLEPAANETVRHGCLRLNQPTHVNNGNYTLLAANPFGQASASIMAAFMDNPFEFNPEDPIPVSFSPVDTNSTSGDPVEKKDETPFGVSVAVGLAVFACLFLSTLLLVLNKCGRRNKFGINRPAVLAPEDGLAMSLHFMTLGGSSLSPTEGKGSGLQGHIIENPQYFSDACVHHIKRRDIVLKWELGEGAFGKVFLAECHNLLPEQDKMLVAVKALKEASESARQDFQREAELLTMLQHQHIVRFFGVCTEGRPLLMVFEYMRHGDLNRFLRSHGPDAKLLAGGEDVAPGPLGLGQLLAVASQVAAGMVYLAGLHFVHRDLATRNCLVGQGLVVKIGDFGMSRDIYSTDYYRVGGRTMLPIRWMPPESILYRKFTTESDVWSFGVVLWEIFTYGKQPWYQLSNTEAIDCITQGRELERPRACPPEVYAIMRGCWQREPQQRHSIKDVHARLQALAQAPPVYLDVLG
Chain of off-target kinases (Homo sapiens, UniProt P23443) (P23443 whole entry): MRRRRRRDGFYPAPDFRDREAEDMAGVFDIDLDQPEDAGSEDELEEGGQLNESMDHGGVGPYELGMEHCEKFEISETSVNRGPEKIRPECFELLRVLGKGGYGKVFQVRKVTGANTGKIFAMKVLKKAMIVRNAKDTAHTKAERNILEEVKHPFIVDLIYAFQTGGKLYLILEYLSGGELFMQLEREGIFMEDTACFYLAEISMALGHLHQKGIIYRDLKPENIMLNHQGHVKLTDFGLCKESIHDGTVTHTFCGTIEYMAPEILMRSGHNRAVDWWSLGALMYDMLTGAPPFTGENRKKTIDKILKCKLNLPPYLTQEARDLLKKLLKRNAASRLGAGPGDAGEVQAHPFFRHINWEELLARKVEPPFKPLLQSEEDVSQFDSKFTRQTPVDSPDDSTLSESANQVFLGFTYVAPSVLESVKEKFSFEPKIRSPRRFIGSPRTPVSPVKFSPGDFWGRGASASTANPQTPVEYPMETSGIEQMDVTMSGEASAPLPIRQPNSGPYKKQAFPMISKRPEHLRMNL

For `N#Cc1cc(-c2ncnc(Nc3ccc(N4CCN(C5COC5)CC4)cc3)n2)ccc1OC1CCOCC1` [Compound 1, 5-(4-((4-(4-(oxetan-3-yl)piperazin-1-yl)phenyl)amino)-1,3,5-triazin-2-yl)-2-((tetrahydro-2H-pyran-4-yl)oxy)benzonitrile], the inhibition (off-target kinases [1]; read-out: % Inhibition 1) was 56%, the inhibition (off-target kinases [1]; read-out: % Inhibition 2) was 57% and the inhibition (off-target kinases [1]; read-out: % Inhibition Avg) was 57%. The “% Inhibition 1” value (off-target kinases [2]) was −16%, the “% Inhibition 2” value (off-target kinases [2]) was −2% and the “% Inhibition Avg” value (off-target kinases [2]) was −9%. The inhibition (off-target kinases [3]; read-out: % Inhibition 1) was 16%, the inhibition (off-target kinases [3]; read-out: % Inhibition 2) was 20% and the inhibition (off-target kinases [3]; read-out: % Inhibition Avg) was 18%. The inhibition (off-target kinases [4]; read-out: % Inhibition 1) was 37%, the inhibition (off-target kinases [4]; read-out: % Inhibition 2) was 36% and the inhibition (off-target kinases [4]; read-out: % Inhibition Avg) was 37%. For the same molecule, the inhibition (off-target kinases [5]; read-out: % Inhibition 1) was -1%, the inhibition (off-target kinases [5]; read-out: % Inhibition 2) was -5% and the inhibition (off-target kinases [5]; read-out: % Inhibition Avg) was -3%.
